# Laboratory results from ChEMBL document CHEMBL1649167, “Serial plasma voriconazole concentrations after allogeneic hematopoietic stem cell transplantation” (Antimicrob Agents Chemother, 2009).
# Assay: Plasma concentration in po dosed patient after 6 days by HPLC analysis
# Type: ADME, organism-based
# Conditions: human
smiles,measurement,value
C[C@@H](c1ncncc1F)[C@](O)(Cn1cncn1)c1ccc(F)cc1F [VORICONAZOLE],concentration at 144 h,< 120 ng/mL
